What all share (assay type): cell-based
The subject of assay [1] is Purkinje cells induced from human pluripotent stem cell aggregates. Description: Patch clamp analysis of Purkinje cells induced from human pluripotent stem cells. The conditions noted are these: AMPA receptor inhibitor. Here is the method: Mature Purkinje cells were differentiated from human pluripotent stem cell aggregates according to the method of Example 3. Using the Patch clamp technique, the electrophysiological reaction thereof was analyzed.

The test system of assay [2] is Human pluripotent stem cell aggregates. Description: Self-formation of cerebellar plate tissue (Kirrel2 positive neuroepithelium) from human pluripotent stem cell aggregates. The conditions noted are these: day 35; cells exposed to Fgf2. Here is the method:
The was aggregates were transferred to a low-cell-adhesion 10 cm dish on and after day 21, and cultured in a neural culture medium (Neurobasal/GlutaMaxI/N2, all Life Technologies). On day 28 of culturing, the total amount of the medium was exchanged with the same neural culture medium, and differentiation of the tissue was analyzed by the immunofluorescence method on day 35 of culturing.
Separated Kirrel2 positive cells, and cerebellar granule cell progenitors prepared from the upper rhombic lip of embryonic day 14 mouse were dispersed into single cells by cell dispersion enzyme (TrypLE, Life Technologies), and cocultured on a cover glass coated with poly D-lysine/laminin in DMEM/F12/10% FBS medium (5% CO2, 37° C.). In coculture, human pluripotent stem cell-derived Kirrel positive cells (1 vol) relative to mouse-derived cerebellar granule cell progenitors (10 vol) were mixed. After 6-12 hr, DMEM/F12/N2/BSA/Tri-iodothyronine (T3) was added to decrease the FBS concentration to about 0.8%.

The test system of the next assay is Human ES cells (KhES-1). In words: Differentiation of human ES cell aggregates (SFEBq method) into midbrain-hindbrain boundary neural progenitors. As to the method: Human ES cells (KhES-1) subjected to maintenance culturing on MEF by a conventional method were used. To differentiate human ES cells by the serum-free floating culture of embryoid body-like aggregates with quick reaggregation (SFEBq method), human ES cells were enzymatically dispersed to single cells, according to the method of Nakano et al. (Cell Stem Cell, 10(6), 771-785, 2012), and reaggregated using a low-cell-adhesive V-bottom 96 well plate (SUMITOMO BAKELITE). 6,000 cells were seeded per well, and cultured in, as a differentiation medium, CDM medium [chemical synthesis medium without a growth factor (growth-factor-free Chemically Defined Medium; gfCDM; Wataya et al., Proc. Natl. Acad. Sci. USA, 105, 11796-11801, 2008) supplemented with insulin (7 μg/ml) and apo-transferrin (15 μg/ml)] under 5% CO2 at 37° C.
The seeding day is taken as day 0 of differentiation culturing. […] […] On day 7, ⅓ of the medium was exchanged with a differentiation medium free of Y-27632, SB431542 and Fgf2. On day 14 of culturing, the medium was completely substituted by a differentiation medium free of Y-27632, SB431542 and FGF2. The cell aggregates were fixed and sliced, and tissue differentiation was analyzed by the immunofluorescence method and quantitative PCR method.

[3] abbreviates: FGF2 50 ng/ml day 2 to day 7 vs Fgf2 non-addition, quantitative PCR.

As for `NS(=O)(=O)c1cccc2c1c([N+](=O)[O-])cc1nc(O)c(O)nc12` [NBQX], the “miniature excitatory postsynaptic current” value in assay [1] is given as “suppression of miniature excitatory postsynaptic current”.
On to “FGF2: known cytokine also called basic fibroblast growth factor (bFGF); first fibroblast growth factor”, for which, in assay [2], the “kirrel2 positive cells (FACS, anti-kirrel2 antibody)” value is listed as about 30%. Further, the “differentiation into neural progenitors in the midbrain-hindbrain boundary” value is “promoted differentiation into neural progenitors in the midbrain-hindbrain boundary” in the assay on Human ES cells (KhES-1) (FGF2 20 ng/ml); “promoted differentiation into neural progenitors in the midbrain-hindbrain boundary” with Human ES cells (KhES-1) (FGF2 100 ng/ml); “did not show promotion of differentiation” in the assay on Human ES cells (KhES-1) (FGF2 5-10 ng/ml (concentration used for maintenance culturing of ES cells)); “showed the highest effect” in the assay on Human ES cells (KhES-1) (FGF2 added days 2-7); “exhibited a promoting effect” with Human ES cells (KhES-1) (FGF2 added days 2-14); “exhibited a promoting effect” in the assay with Human ES cells (KhES-1) (FGF2 added days 3-7). The entries for the “differentiation into neural progenitors in the midbrain-hindbrain boundary” value in the assay with Human ES cells (KhES-1) (FGF2 added days 4-7), in the assay on Human ES cells (KhES-1) (FGF2 added from day 0) and in the assay on Human ES cells (KhES-1) (FGF2 added from day 1) were “exhibited a promoting effect”, “remarkable promotion of differentiation into neural progenitors in the midbrain-hindbrain boundary was not observed” and “remarkable promotion of differentiation into neural progenitors in the midbrain-hindbrain boundary was not observed”, respectively. In addition, in the assay with Human ES cells (KhES-1) (setting [3]), the “expression of forebrain markers Six3 and Otx2” value is on record as “suppressed”. Also, the “expression of midbrain-hindbrain boundary markers En2, Gbx2” value in the assay with Human ES cells (KhES-1) (setting [3]) was “markedly increased”. Moreover, in the assay on Human ES cells (KhES-1) (FGF2 addition, days 10 and 14), the “expression of Fgf8 and Wntl (isthmic organizer)” value is listed as “enhanced”.
